Source: ChEMBL document CHEMBL5338738, “Discovery of Novel Sesquiterpene Lactone Derivatives as Potent PKM2 Activators for the Treatment of Ulcerative Colitis” (J Med Chem, 2023)
Activity calls are given as the source filed them. The calls are words filed in the database; no cut-off is given here.

Assays:
[1] = biological target: Pyruvate kinase PKM (Mus musculus) (UniProt P52480); experiment: Binding affinity to PKM2 in C57BL/6 mouse mesenteric lymph node CD4+ve Th cells assessed as increase in denaturation temperature at 3 uM incubated for 4 hrs by […] analysis; details: filed as activator
[2] = tested on: CD4+ve Th; experiment: (§1) Inhibition of Th17 cells differentiation in anti-CD3/CD28 stimulated C57BL/6 mouse mesenteric lymph node CD4+ve Th cells assessed as decrease in PKM2 expression in nucleus at 0.1 to 3 uM incubated for 96 hrs in presence of recombinant human TGF-beta, recombinant mouse IL-6 and recombinant mouse IL-23 by Western blot analysis; format: functional, cell-based; details: dose 0.1-3 µM
[3] = Tmax in Sprague-Dawley rat at 75 mg/kg,po and measured upto 24 hrs by LC-MS/MS analysis; format: ADME, organism-based; details: in vivo
[4] = MRT(t) in Sprague-Dawley rat at 75 mg/kg,po and measured upto 24 hrs by LC-MS/MS analysis; format: ADME, organism-based; details: in vivo
[5] = biological target: T1, Pyruvate kinase PKM (Homo sapiens, UniProt P14618); experiment: Covalent binding affinity to recombinant human PKM2 at Cys424 residue at 20 uM incubated for 120 mins by LC-MS/MS analysis; details: filed as activator
Target sequence in this assay (P14618 2-531 limits assumed): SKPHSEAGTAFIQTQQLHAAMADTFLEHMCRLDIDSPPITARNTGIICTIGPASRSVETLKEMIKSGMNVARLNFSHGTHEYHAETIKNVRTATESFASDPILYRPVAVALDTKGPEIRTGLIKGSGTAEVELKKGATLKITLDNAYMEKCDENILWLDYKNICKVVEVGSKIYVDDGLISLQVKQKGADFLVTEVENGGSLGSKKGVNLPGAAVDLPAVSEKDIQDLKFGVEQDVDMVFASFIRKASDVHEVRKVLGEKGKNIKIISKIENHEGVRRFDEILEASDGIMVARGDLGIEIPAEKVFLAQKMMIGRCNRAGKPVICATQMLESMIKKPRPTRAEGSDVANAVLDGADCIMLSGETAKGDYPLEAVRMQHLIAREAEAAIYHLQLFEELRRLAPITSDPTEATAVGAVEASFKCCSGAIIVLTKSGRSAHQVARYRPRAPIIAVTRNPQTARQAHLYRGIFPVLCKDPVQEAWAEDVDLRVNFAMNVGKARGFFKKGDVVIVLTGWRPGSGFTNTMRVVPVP

[6] = Tmax in Sprague-Dawley rat at 8 mg/kg,iv and measured upto 24 hrs by LC-MS/MS analysis; format: ADME, organism-based; details: in vivo
[7] = Inhibition of Treg cells differentiation in anti-CD3/CD28 stimulated C57BL/6 mouse mesenteric lymph node CD4+ve Th cells assessed as decrease in proportion of Foxp3-positive Treg cells at 0.3 uM incubated for 96 hrs in presence of recombinant human TGF-beta by flow cytometry (Rvb= 21.1%); format: functional; details: C57BL/6, CD4+ve Th
[8] = tested on: Mus musculus; experiment: Anti-colitis activity against DSS-induced ulcerative colitis C57BL/6 mouse model assessed as decrease in IL-6 mRNA expression level in colon at 12.5 to 25 mg/kg, po for 10 days consecutively by qPCR analysis; format: functional, organism-based; details: dose 12.5-25 mg/kg, time 10.0 day
[9] = (§2) Inhibition of Th17 cells differentiation in anti-CD3/CD28 stimulated C57BL/6 mouse mesenteric lymph node CD4+ve Th cells assessed as decrease in proportion of IL17A-positive Th17 cells at 3 uM incubated for 96 hrs in presence of recombinant human TGF-beta, recombinant mouse IL-6 and recombinant mouse IL-23 by flow cytometry (Rvb= 16.7%); format: functional; details: C57BL/6, CD4+ve Th
[10] = tested on: CD4+ve Th; experiment: Inhibition of Treg cells differentiation in anti-CD3/CD28 stimulated C57BL/6 mouse mesenteric lymph node CD4+ve Th cells assessed as change in Foxp3 mRNA expression level cells at 0.1 to 3 uM incubated for 96 hrs in presence of recombinant human TGF-beta by qPCR analysis; format: functional, cell-based; details: dose 0.1-3 µM
[11] = Cmax in Sprague-Dawley rat at 8 mg/kg,iv and measured upto 24 hrs by LC-MS/MS analysis; format: ADME, organism-based; set-up: time < 24 hrs, dose 8 mg/kg, route iv; details: in vivo
[12] = tested on: Mus musculus; experiment: Anti-colitis activity against DSS-induced ulcerative colitis C57BL/6 mouse model assessed as decrease in IL-1beta mRNA expression level in colon at 12.5 to 25 mg/kg, po for 10 days consecutively by qPCR analysis; format: functional, organism-based; details: dose 12.5-25 mg/kg, time 10.0 day
[13] = tested on: Mus musculus; experiment: Anti-colitis activity against DSS-induced ulcerative colitis C57BL/6 mouse model assessed as downregulation of IL17a mRNA expression level in spleen at 12.5 to 25 mg/kg, po for 10 days consecutively by qPCR assay; format: functional, organism-based; details: dose 12.5-25 mg/kg, time 10.0 day
[14] = Toxicity in C57BL/6 mouse assessed as histological change in heart at 6.25 to 25 mg/kg, po for 10 days consecutively by H and E staining based microscopy; format: organism-based; details: in vivo, 240 h, dose 6.25-25 mg/kg, time 10 day
[15] = tested on: CD4+ve Th; experiment: Cytotoxicity against C57BL/6 mouse mesenteric lymph node CD4+ve Th cells assessed as reduction in cell proliferation at 0.3 to 3 uM incubated for 96 hrs by CCK-8 assay; format: toxicity, cell-based; details: dose 0.3-3 µM
[16] = tested on: Mus musculus; experiment: Anti-colitis activity against DSS-induced ulcerative colitis C57BL/6 mouse model assessed as downregulation of RORC mRNA expression level in colon at 12.5 to 25 mg/kg, po for 10 days consecutively by qPCR assay; format: functional, organism-based; details: dose 12.5-25 mg/kg, time 10.0 day
[17] = Volume of distribution in Sprague-Dawley rat at 8 mg/kg,iv and measured upto 24 hrs by LC-MS/MS analysis; format: ADME, organism-based; details: in vivo
[18] = Protein binding in rat plasma assessed as bound fraction; format: ADME, cell-free; details: read-out: PPB (converted)
[19] = tested on: Mus musculus; experiment: Anti-colitis activity against TNBS-induced ulcerative colitis BALB/c mouse model assessed as increase in colon length at 12.5 to 25 mg/kg, po for consecutive 7 days; format: functional, organism-based; details: dose 12.5-25 mg/kg, time 7.0 day
[20] = tested on: Mus musculus; experiment: Anti-colitis activity against DSS-induced ulcerative colitis C57BL/6 mouse model assessed as downregulation of IL10 mRNA expression level in colon at 6.25 to 25 mg/kg, po for 10 days consecutively by qPCR assay; format: functional, organism-based; details: dose 6.25-25 mg/kg, time 10.0 day
[21] = AUCt in Sprague-Dawley rat at 75 mg/kg,po and measured upto 24 hrs by LC-MS/MS analysis; format: ADME, organism-based; set-up: time < 24 hrs, dose 75 mg/kg, route po; details: in vivo
[22] = tested on: Mus musculus; experiment: Anti-colitis activity against DSS-induced ulcerative colitis C57BL/6 mouse model assessed as downregulation of Foxp3 mRNA expression level in mesenteric lymph nodes at 6.25 to 25 mg/kg, po for 10 days consecutively by qPCR assay; format: functional, organism-based; details: dose 6.25-25 mg/kg, time 10.0 day
[23] = tested on: Mus musculus; experiment: Anti-colitis activity against DSS-induced ulcerative colitis C57BL/6 mouse model assessed as downregulation of IL10 mRNA expression level in mesenteric lymph nodes at 6.25 to 25 mg/kg, po for 10 days consecutively by qPCR assay; format: functional, organism-based; details: dose 6.25-25 mg/kg, time 10.0 day
[24] = Clearance in Sprague-Dawley rat at 8 mg/kg,iv and measured upto 24 hrs by LC-MS/MS analysis; format: ADME, organism-based; details: in vivo
[25] = biological target: T1, Pyruvate kinase PKM; experiment: Activation of PKM2 (unknown origin) incubated for 30 mins
Target sequence in this assay (P14618 whole entry): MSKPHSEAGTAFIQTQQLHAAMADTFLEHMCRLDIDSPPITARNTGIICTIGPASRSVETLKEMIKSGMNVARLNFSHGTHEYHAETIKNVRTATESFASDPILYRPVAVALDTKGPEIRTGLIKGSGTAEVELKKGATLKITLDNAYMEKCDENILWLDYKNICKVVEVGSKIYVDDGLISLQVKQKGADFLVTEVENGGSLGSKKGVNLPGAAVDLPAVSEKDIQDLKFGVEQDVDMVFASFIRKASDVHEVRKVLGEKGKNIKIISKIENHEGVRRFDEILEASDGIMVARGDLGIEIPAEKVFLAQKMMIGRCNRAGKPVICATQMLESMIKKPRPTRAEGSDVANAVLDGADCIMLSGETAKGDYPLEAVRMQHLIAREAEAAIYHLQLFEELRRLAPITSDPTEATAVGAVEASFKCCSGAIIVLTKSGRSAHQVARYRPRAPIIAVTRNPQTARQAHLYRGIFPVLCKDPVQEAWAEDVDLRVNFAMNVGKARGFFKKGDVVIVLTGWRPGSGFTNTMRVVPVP

[26] = as §2, with “at 1” for “at 3”; format: functional; details: C57BL/6, CD4+ve Th
[27] = tested on: Mus musculus; experiment: Anti-colitis activity against DSS-induced ulcerative colitis C57BL/6 mouse model assessed as downregulation of IL17a mRNA expression level in colon at 12.5 to 25 mg/kg, po for 10 days consecutively by qPCR assay; format: functional, organism-based; details: dose 12.5-25 mg/kg, time 10.0 day
[28] = tested on: Mus musculus; experiment: Anti-colitis activity against DSS-induced ulcerative colitis C57BL/6 mouse model assessed as decrease in TNF-alpha mRNA expression level in colon at 12.5 to 25 mg/kg, po for 10 days consecutively by qPCR analysis; format: functional, organism-based; details: dose 12.5-25 mg/kg, time 10.0 day
[29] = tested on: CD4+ve Th; experiment: as §1, with “increase” for “decrease”, “tetramer formation” for “expression in nucleus”; format: functional, cell-based; details: dose 0.1-3 µM
[30] = tested on: Mus musculus; experiment: Anti-colitis activity against DSS-induced ulcerative colitis C57BL/6 mouse model assessed as downregulation of Foxp3 mRNA expression level in spleen at 6.25 to 25 mg/kg, po for 10 days consecutively by qPCR assay; format: functional, organism-based; details: dose 6.25-25 mg/kg, time 10.0 day
[31] = Half life in Sprague-Dawley rat at 8 mg/kg,iv and measured upto 24 hrs by LC-MS/MS analysis; format: ADME, organism-based; details: in vivo
[32] = tested on: CD4+ve Th; experiment: as §1, with “downregulation of IL21 mRNA” for “decrease in PKM2”, “level” for “in nucleus”, “qPCR” for “Western blot”; format: functional, cell-based; details: dose 0.1-3 µM

Chain of Pyruvate kinase PKM (Mus musculus) (P52480 whole entry): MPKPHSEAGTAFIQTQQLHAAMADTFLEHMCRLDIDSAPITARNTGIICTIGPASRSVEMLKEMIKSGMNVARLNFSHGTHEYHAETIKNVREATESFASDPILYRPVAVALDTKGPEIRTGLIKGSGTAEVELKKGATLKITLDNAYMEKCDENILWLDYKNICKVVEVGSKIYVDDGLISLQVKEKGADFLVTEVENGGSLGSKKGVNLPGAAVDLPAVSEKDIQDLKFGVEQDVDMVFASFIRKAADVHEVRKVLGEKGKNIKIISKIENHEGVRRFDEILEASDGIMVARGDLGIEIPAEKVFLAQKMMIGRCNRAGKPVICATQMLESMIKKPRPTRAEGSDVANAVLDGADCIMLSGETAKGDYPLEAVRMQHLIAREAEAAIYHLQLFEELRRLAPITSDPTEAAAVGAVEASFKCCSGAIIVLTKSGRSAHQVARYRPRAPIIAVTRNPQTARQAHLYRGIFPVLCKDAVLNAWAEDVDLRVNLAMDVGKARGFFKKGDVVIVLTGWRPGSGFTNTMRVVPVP

ΔTm [1]: 6 °C
Tmax [3]: 6 h
MRT last at 24 h [4]: 12.4 h
Activity [5]: Active
Tmax [6]: 4.98 min
Cmax [11]: 190 ng/mL
Vd [17]: 17.6 L/kg
fraction unbound [18]: 0.201
AUC(0-t) at 24 h [21]: 322 ng·h/mL
clearance [24]: 103 mL/min/kg
EC50 [25]: 202 nM
half-life [31]: 2 h
Structure (SMILES): C=C1C(=O)O[C@H]2[C@H]1CC[C@@]1(C)[C@@H](CC[C@@]3(C)O[C@@H]23)C1(F)F
inhibition [2]: Active
Foxp3+ cells at 0.3 µM [7]: 18.4%
Activity [8]: Active
IL17A+ cells at 3 µM [9]: 4.26%
inhibition [10]: inactive
Activity [12]: Active
Activity [13]: Active
Activity [14]: Non-Toxic
Activity [15]: Non-Toxic
Activity [16]: Active
Activity [19]: Active
Activity [20]: inactive
Activity [22]: inactive
Activity [23]: inactive
IL17A+ cells at 1 µM [26]: 8.1%
Activity [27]: Active
Activity [28]: Active
inhibition [29]: Active
Activity [30]: inactive
inhibition [32]: Active
